Laboratory results: ChEMBL document CHEMBL1156903, “Synthesis of bisboron compounds and their strong inhibitory activity on store-operated calcium entry” (Bioorg Med Chem Lett, 2010)

Assay: Inhibition of thapsigargin-induced SOCE channel in fura-2 loaded human Jarkart T cells in presence of 2 mM calcium
Details: Jurkat

SMILES	IC50 [nM]
NCCOB(c1ccccc1)c1ccc(Oc2ccc(B(OCCN)c3ccccc3)cc2)cc1	410
NCCOB(c1ccccc1)c1ccccc1	15000
Cc1ccc(B(OCCN)c2ccc(Oc3ccc(B(OCCN)c4ccc(C)c(Cl)c4)cc3)cc2)cc1Cl	640
NCCOB(c1ccccc1)c1ccc(CCOCc2ccc(B(OCCN)c3ccccc3)cc2)cc1	310
NCCOB(c1ccccc1)c1ccc(COCc2ccc(B(OCCN)c3ccccc3)cc2)cc1	430
NCCOB(c1ccccc1)c1cccc(COCc2cccc(Oc3ccccc3)c2)c1	1900
NCCOB(c1ccccc1)c1ccc(-c2ccc(B(OCCN)c3ccccc3)cc2)cc1	450
NCCOB(c1ccccc1)c1cccc(COCc2cccc(B(OCCN)c3ccccc3)c2)c1	320
